In brackets after ≈: the same amount, converted by molar mass.
Assays:
[1] = tested on: Mycobacterium tuberculosis; assay: Antitubercular activity against Mycobacterium tuberculosis H37Rv by microbroth dilution method; format: functional
[2] = tested on: Bacillus anthracis; assay: Antibacterial activity against Bacillus anthracis Sterne 34F2 by microbroth dilution method; format: functional
[3] = tested on: Enterococcus faecalis; assay: Antibacterial activity against Enterococcus faecalis ATCC 33186 by microbroth dilution method; format: functional
[4] = tested on: Staphylococcus aureus; assay: Antibacterial activity against methicillin-sensitive Staphylococcus aureus ATCC 29213 by microbroth dilution method; format: functional
[5] = tested on: Staphylococcus aureus; assay: Antibacterial activity against methicillin-resistant Staphylococcus aureus NRS70 by microbroth dilution method; format: functional
[6] = tested on: Streptococcus pyogenes; assay: Antibacterial activity against Streptococcus pyogenes ATCC 700294 by microbroth dilution method; format: functional
[7] = tested on: Streptococcus pneumoniae; assay: Antibacterial activity against Streptococcus pneumoniae R6 by microbroth dilution method; format: functional
[8] = tested on: Bacillus subtilis; assay: Antibacterial activity against Bacillus subtilis ATCC 23857 by microbroth dilution method; format: functional
[9] = tested on: Acinetobacter baumannii; assay: Antibacterial activity against Acinetobacter baumannii ATCC 19606 by microbroth dilution method; format: functional, ATCC 19606 = CIP 70.34 = JCM 6841
[10] = tested on: Escherichia coli; assay: Antibacterial activity against Escherichia coli K-12 by microbroth dilution method; format: functional
[11] = tested on: Escherichia coli; assay: Antibacterial activity against Escherichia coli harboring TolC deletion mutant by microbroth dilution method; format: functional
[12] = tested on: Burkholderia cepacia; assay: Antibacterial activity against Burkholderia cepacia ATCC 25416 by microbroth dilution method; format: functional
[13] = tested on: Klebsiella pneumoniae; assay: Antibacterial activity against Klebsiella pneumoniae ATCC 33495 by microbroth dilution method; format: functional
[14] = tested on: Proteus mirabilis; assay: Antibacterial activity against Proteus mirabilis ATCC 25933 by microbroth dilution method; format: functional
[15] = tested on: Proteus vulgaris; assay: Antibacterial activity against Proteus vulgaris ATCC 33420 by microbroth dilution method; format: functional
[16] = tested on: Pseudomonas aeruginosa; assay: Antibacterial activity against Pseudomonas aeruginosa PAO1 by microbroth dilution method; format: functional
[17] = Mycobacterium tuberculosis, H37Rv, read-out: MIC
[18] = Bacillus anthracis, Sterne 34F2, read-out: MIC
[19] = Enterococcus faecalis, ATCC 33186, read-out: MIC
[20] = Staphylococcus aureus, ATCC 29213, read-out: MIC
[21] = Staphylococcus aureus, NRS70, read-out: MIC
[22] = Streptococcus pyogenes, ATCC 700294, read-out: MIC
[23] = Streptococcus pneumoniae, R6, read-out: MIC
[24] = Bacillus subtilis, ATCC 23857, read-out: MIC
[25] = Acinetobacter baumannii, ATCC 19606 = CIP 70.34 = JCM 6841, read-out: MIC
[26] = Escherichia coli, read-out: MIC

| Compound | MIC [1, 17] [µg/mL] | MIC [2, 18] [µg/mL] | MIC [3, 19] [µg/mL] | MIC [4, 20] [µg/mL] | MIC [5, 21] [µg/mL] | MIC [6, 22] [µg/mL] | MIC [7, 23] [µg/mL] | MIC [8, 24] [µg/mL] | MIC [9, 25] [µg/mL] | MIC [10] [µg/mL] | MIC [11, 26] [µg/mL] | MIC [12] [µg/mL] | MIC [13] [µg/mL] | MIC [14] [µg/mL] | MIC [15] [µg/mL] | MIC [16] [µg/mL] | also measured |
| --- | --- | --- | --- | --- | --- | --- | --- | --- | --- | --- | --- | --- | --- | --- | --- | --- | --- |
| COc1ccc2cc1Oc1cc(ccc1OC)CCC(N)CCCC2 (centres undefined) | 200 (≈ 586 µM) | 100 (≈ 293 µM) | 200 (≈ 586 µM) | 200 (≈ 586 µM) | 200 (≈ 586 µM) | 200 (≈ 586 µM) | 200 (≈ 586 µM) | 100 (≈ 293 µM) | 200 (≈ 586 µM) | 200 (≈ 586 µM) | 100 (≈ 293 µM) | > 100 | > 100 | > 100 | > 100 | > 100 | – |
| COc1ccc2cc1Oc1cc(ccc1OC)CCC(NCCCCc1ccccc1)CCCC2 (centres undefined) | 25 (≈ 52.8 µM) | 50 (≈ 106 µM) | 25 (≈ 52.8 µM) | 25 (≈ 52.8 µM) | 25 (≈ 52.8 µM) | 12.5 (≈ 26.4 µM) | 50 (≈ 106 µM) | 12.5 (≈ 26.4 µM) | 100 (≈ 211 µM) | > 100 | 12.5 (≈ 26.4 µM) | > 100 | > 100 | > 100 | > 100 | > 100 | – |
| COc1ccc2cc1Oc1cc(ccc1OC)CCC(NCCCc1ccccc1)CCCC2 (centres undefined) | 50 (≈ 109 µM) | 50 (≈ 109 µM) | 25 (≈ 54.4 µM) | 25 (≈ 54.4 µM) | 25 (≈ 54.4 µM) | 50 (≈ 109 µM) | 50 (≈ 109 µM) | 25 (≈ 54.4 µM) | 50 (≈ 109 µM) | > 100 | 12.5 (≈ 27.2 µM) | > 100 | > 100 | > 100 | > 100 | > 100 | – |
| COc1ccc2cc1Oc1cc(ccc1OC)CCC(NCCc1ccccc1F)CCCC2 (centres undefined) | 25 (≈ 53.9 µM) | 50 (≈ 108 µM) | 25 (≈ 53.9 µM) | 50 (≈ 108 µM) | 25 (≈ 53.9 µM) | 50 (≈ 108 µM) | 50 (≈ 108 µM) | 12.5 (≈ 27 µM) | 100 (≈ 216 µM) | > 100 | 25 (≈ 53.9 µM) | > 100 | > 100 | > 100 | > 100 | > 100 | – |
| COc1ccc2cc1Oc1cc(ccc1OC)CCC(NCCc1ccc(O)cc1)CCCC2 (centres undefined) | 100 (≈ 217 µM) | 50 (≈ 108 µM) | 100 (≈ 217 µM) | > 100 | 100 (≈ 217 µM) | 100 (≈ 217 µM) | 100 (≈ 217 µM) | 50 (≈ 108 µM) | > 100 | > 100 | 100 (≈ 217 µM) | > 100 | > 100 | > 100 | > 100 | > 100 | – |
| CCCCCCNC1CCCCc2ccc(OC)c(c2)Oc2cc(ccc2OC)CC1 (centres undefined) | 12.5 to 50 (≈ 29.4 to 117 µM) | – | – | – | – | – | – | – | – | – | – | – | – | – | – | – | – |
| COc1ccc(CCNC2CCCCc3ccc(OC)c(c3)Oc3cc(ccc3OC)CC2)cc1OC (centres undefined) | 100 (≈ 198 µM) | > 100 | > 100 | > 100 | > 100 | > 100 | > 100 | > 100 | > 100 | > 100 | > 100 | > 100 | > 100 | > 100 | > 100 | > 100 | – |
| COc1ccc2cc1Oc1cc(ccc1OC)CCC(NCCc1cccc(F)c1)CCCC2 (centres undefined) | 25 (≈ 53.9 µM) | 50 (≈ 108 µM) | 25 (≈ 53.9 µM) | 50 (≈ 108 µM) | 25 (≈ 53.9 µM) | 50 (≈ 108 µM) | 50 (≈ 108 µM) | 12.5 (≈ 27 µM) | 50 (≈ 108 µM) | > 100 | 25 (≈ 53.9 µM) | > 100 | > 100 | > 100 | > 100 | > 100 | – |
| COc1ccc2cc1Oc1cc(ccc1OC)CCC(NCCc1ccccn1)CCCC2 (centres undefined) | 100 (≈ 224 µM) | > 100 | > 100 | > 100 | > 100 | > 100 | 100 (≈ 224 µM) | 100 (≈ 224 µM) | > 100 | > 100 | 100 (≈ 224 µM) | > 100 | > 100 | > 100 | > 100 | > 100 | – |
| COc1ccc2cc1Oc1cc(ccc1OC)CCC(NCCc1ccc3c(c1)OCO3)CCCC2 (centres undefined) | 25 (≈ 51.1 µM) | 50 (≈ 102 µM) | 50 (≈ 102 µM) | 50 (≈ 102 µM) | 25 (≈ 51.1 µM) | 12.5 (≈ 25.5 µM) | 50 (≈ 102 µM) | 12.5 (≈ 25.5 µM) | > 100 | > 100 | 12.5 (≈ 25.5 µM) | > 100 | > 100 | > 100 | > 100 | > 100 | – |
| COc1ccc2cc1Oc1cc(ccc1OC)CCC(NCc1ccccc1)CCCC2 (centres undefined) | 12.5 to 50 (≈ 29 to 116 µM) | – | – | – | – | – | – | – | – | – | – | – | – | – | – | – | – |
| COc1ccc2cc1Oc1cc(ccc1OC)CCC(NCCc1ccccc1)CCCC2 (centres undefined) | 12.5 to 50 (≈ 28.1 to 112 µM) | – | – | – | – | – | – | – | – | – | – | – | – | – | – | – | – |
| COc1ccc2cc1Oc1cc(ccc1OC)CCC(N[C@@H]1CCCc3ccccc31)CCCC2 (stereo in doubt; 25) | > 100 | – | – | > 100 | – | – | – | – | – | > 100 | – | > 100 | > 100 | > 100 | > 100 | > 100 | MIC [8]: 6.25 µg/mL (≈ 13.3 µM); MIC [11]: 100 µg/mL (≈ 212 µM) |
| COc1ccc2cc1Oc1cc(ccc1OC)CCC(N[C@@H]1CCCc3ccccc31)CCCC2 (stereo in doubt; 26) | – | – | – | – | – | – | – | – | – | – | – | – | – | – | – | – | MIC [1]: 50 µg/mL (≈ 106 µM); MIC [7]: 50 µg/mL (≈ 106 µM); MIC [8]: 25 µg/mL (≈ 53 µM); MIC [9]: >100 µg/mL; MIC [11]: 25 µg/mL (≈ 53 µM) |
| COc1ccc2cc1Oc1cc(ccc1OC)CCC(N[C@H]1CCCc3ccccc31)CCCC2 (stereo in doubt; 27) | – | > 100 | > 100 | – | > 100 | > 100 | > 100 | > 100 | > 100 | > 100 | – | > 100 | > 100 | > 100 | > 100 | > 100 | MIC [11]: >100 µg/mL |
| COc1ccc2cc1Oc1cc(ccc1OC)CCC(N[C@H]1CCCc3ccccc31)CCCC2 (stereo in doubt; 28) | – | – | – | – | – | – | – | – | – | – | – | – | – | – | – | – | MIC [2]: >100 µg/mL; MIC [3]: >100 µg/mL; MIC [4]: >100 µg/mL; MIC [5]: >100 µg/mL; MIC [6]: >100 µg/mL; MIC [7]: >100 µg/mL; MIC [8]: >100 µg/mL; MIC [11]: 25 µg/mL (≈ 53 µM) |
| O=C(N[C@H](CO)[C@H](O)c1ccc([N+](=O)[O-])cc1)C(Cl)Cl [CHLORAMPHENICOL] | – | 3.12 (≈ 9.67 µM) | – | 6.25 (≈ 19.3 µM) | 3.12 (≈ 9.67 µM) | 3.12 (≈ 9.67 µM) | 1.56 (≈ 4.83 µM) | 6.25 (≈ 19.3 µM) | 50 (≈ 155 µM) | 6.25 (≈ 19.3 µM) | 0.78 (≈ 2.41 µM) | > 100 | > 100 | > 100 | > 100 | > 100 | – |
| NNC(=O)c1ccncc1 [ISONIAZID] | 0.03 (≈ 0.219 µM) | – | – | – | – | – | – | – | – | – | – | – | – | – | – | – | – |
